According to paper PMC12073449, “Development of a Mechanism of Action-Reflective Cell-Based Reporter Gene Assay for Measuring Bioactivities of Therapeutic Glucagon-like Peptide-2 Analogues” (Molecules, 2025):
Ends that are not written are not given here.

Test system: HEK293-GLP-2R-Luc cells

## HGEGTFSSELATILDALAARDFINWLIATKITDKKKKKK-NH2 [glepaglutide]
Qvalue 0.021231
  log2 (TD/Ctrl) TMEM54: 1.072
Qvalue 0.021465
  log2 (TD/Ctrl) RYR1: 1.055
Qvalue 0.021994
  log2 (TD/Ctrl) PHKG1: 1.955
Qvalue 0.022289
  log2 (TD/Ctrl) KLF6: 1.402
Qvalue 0.022315
  log2 (TD/Ctrl) LRRTM4: −1.285
Qvalue 0.023229
  log2 (TD/Ctrl) PHOSPHO2: −1.059
Qvalue 0.023249
  log2 (TD/Ctrl) MICOS10-NBL1: 1.952
Qvalue 0.023634
  log2 (TD/Ctrl) PDE3A: 1.882
Qvalue 0.023651
  log2 (TD/Ctrl) LARGE2: 1.17
Qvalue 0.024442
  log2 (TD/Ctrl) HES7: 1.525
Qvalue 0.024619
  log2 (TD/Ctrl) VSTM2B: 1.668
Qvalue 0.02493
  log2 (TD/Ctrl) INSM1: 1.259
Qvalue 0.025061
  log2 (TD/Ctrl) SIK1: 1.255
Qvalue 0.02555
  log2 (TD/Ctrl) IQANK1: −1.07
Qvalue 0.026368
  log2 (TD/Ctrl) TRABD2A: 1.121
Qvalue 0.026593
  log2 (TD/Ctrl) RAB20: 1.265
Qvalue 0.026923
  log2 (TD/Ctrl) ADAM8: −1.632
Qvalue 0.027245
  log2 (TD/Ctrl) EGR2: 1.924
Qvalue 0.027976
  log2 (TD/Ctrl) ACTRT3: −1.89
Qvalue 0.028089
  log2 (TD/Ctrl) CILP2: 1.014
Qvalue 0.028153
  log2 (TD/Ctrl) KCNJ4: 1.521
Qvalue 0.0305
  log2 (TD/Ctrl) NGFR: 1.083
Qvalue 0.031918
  log2 (TD/Ctrl) GPR146: −1.284
Qvalue 0.032594
  log2 (TD/Ctrl) SLC2A9: −1.825
Qvalue 0.032833
  log2 (TD/Ctrl) FIBIN: −1.931
Qvalue 0.033388
  log2 (TD/Ctrl) INSC: 1.775
Qvalue 0.034028
  log2 (TD/Ctrl) TRPM4: 1.164
Qvalue 0.034573
  log2 (TD/Ctrl) TOR4A: −1.123
Qvalue 0.034821
  log2 (TD/Ctrl) ANXA3: 1.046
Qvalue 0.035979
  log2 (TD/Ctrl) F2RL2: 2.195
Qvalue 0.036382
  log2 (TD/Ctrl) GFRA2: 1.989
Qvalue 0.036855
  log2 (TD/Ctrl) CHD5: 1.476
Qvalue 0.037055
  log2 (TD/Ctrl) IER5L: 1.227
Qvalue 0.03809
  log2 (TD/Ctrl) CORO1A: 1.157
Qvalue 0.038243
  log2 (TD/Ctrl) DMRT1: 2.578
Qvalue 0.038553
  log2 (TD/Ctrl) TMEM200A: 2.008
Qvalue 0.038759
  log2 (TD/Ctrl) BIRC3: 1.213
Qvalue 0.040011
  log2 (TD/Ctrl) GJB7: −1.706
Qvalue 0.044085
  log2 (TD/Ctrl) PABIR3: 1.001
Qvalue 0.044461
  log2 (TD/Ctrl) DAB1: 1.527
Qvalue 0.046355
  log2 (TD/Ctrl) CLIC5: 1.134
Qvalue 0.046402
  log2 (TD/Ctrl) LOC124904248: −1.239
Qvalue 0.046871
  log2 (TD/Ctrl) FOXD4: −1.765
Qvalue 0.046941
  log2 (TD/Ctrl) SNAI2: 1.1
Qvalue 0.047154
  log2 (TD/Ctrl) ANKRD20A1: 1.015
Qvalue 0.048413
  log2 (TD/Ctrl) MVP: 1.066
Qvalue 0.048554
  log2 (TD/Ctrl) SHISA8: 1.031
Qvalue 0.04891
  log2 (TD/Ctrl) TBC1D3C: −2.321
Qvalue 0.049404
  log2 (TD/Ctrl) CDH1: 1.135
Qvalue 0.049596
  log2 (TD/Ctrl) ZNF296: 1.005
Qvalue 1.00 × 10^−4
  log2 (TD/Ctrl) IRX4: 3.763
Qvalue 1.04 × 10^−4
  log2 (TD/Ctrl) LYPD6: −1.124
Qvalue 1.04 × 10^−9
  log2 (TD/Ctrl) TGFB1: 1.683
Qvalue 1.04 × 10^−10
  log2 (TD/Ctrl) SMOX: 1.479
Qvalue 1.05 × 10^−12
  log2 (TD/Ctrl) GPR3: 3.013
Qvalue 1.07 × 10^−13
  log2 (TD/Ctrl) PMAIP1: 1.02
Qvalue 1.09 × 10^−13
  log2 (TD/Ctrl) CCN1: 1.83
Qvalue 1.10 × 10^−10
  log2 (TD/Ctrl) BAX: −1.136
Qvalue 1.10 × 10^−21
  log2 (TD/Ctrl) ACTBL2: 2.68
Qvalue 1.18 × 10^−18
  log2 (TD/Ctrl) CREM: 1.319
Qvalue 1.19 × 10^−6
  log2 (TD/Ctrl) TFPI: 1.103
Qvalue 1.21 × 10^−4
  log2 (TD/Ctrl) CFAP44: −1.2179
Qvalue 1.22 × 10^−4
  log2 (TD/Ctrl) SPRY4: 1.583
Qvalue 1.22 × 10^−6
  log2 (TD/Ctrl) GCNT1: −1.113
Qvalue 1.23 × 10^−13
  log2 (TD/Ctrl) DUSP1: 2.837
Qvalue 1.26 × 10^−13
  log2 (TD/Ctrl) MAFK: 1.561
Qvalue 1.30 × 10^−33
  log2 (TD/Ctrl) GEM: 2.896
Qvalue 1.31 × 10^−5
  log2 (TD/Ctrl) EML2: 1.098
Qvalue 1.32 × 10^−6
  log2 (TD/Ctrl) ECEL1: 2.018
Qvalue 1.32 × 10^−9
  log2 (TD/Ctrl) NFATC1: 1.146
Qvalue 1.34 × 10^−6
  log2 (TD/Ctrl) LBHD1: −1.453
Qvalue 1.34 × 10^−10
  log2 (TD/Ctrl) GNG4: 1.107
Qvalue 1.35 × 10^−4
  log2 (TD/Ctrl) GFPT2: 1.08
  log2 (TD/Ctrl) HOXB6: −1.274
Qvalue 1.36 × 10^−15
  log2 (TD/Ctrl) VGF: 2.99
Qvalue 1.38 × 10^−4
  log2 (TD/Ctrl) USP4: 1.002
Qvalue 1.39 × 10^−4
  log2 (TD/Ctrl) CASD1: −1.007
Qvalue 1.39 × 10^−7
  log2 (TD/Ctrl) SGK1: 1.322
Qvalue 1.40 × 10^−4
  log2 (TD/Ctrl) PHLDA1: 1.224
Qvalue 1.40 × 10^−27
  log2 (TD/Ctrl) NDRG1: 1.674
Qvalue 1.41 × 10^−13
  log2 (TD/Ctrl) EMILIN2: 1.304
Qvalue 1.41 × 10^−16
  log2 (TD/Ctrl) TPM4: 1.086
Qvalue 1.44 × 10^−4
  log2 (TD/Ctrl) FOSB: 2.796
Qvalue 1.44 × 10^−12
  log2 (TD/Ctrl) IER3: 1.677
Qvalue 1.47 × 10^−8
  log2 (TD/Ctrl) AHR: 1.016
  log2 (TD/Ctrl) SPINT1: 1.307
Qvalue 1.47 × 10^−41
  log2 (TD/Ctrl) PTP4A1: 1.5
Qvalue 1.49 × 10^−13
  log2 (TD/Ctrl) FOSL2: 1.385
Qvalue 1.52 × 10^−19
  log2 (TD/Ctrl) GADD45A: 1.573
Qvalue 1.54 × 10^−5
  log2 (TD/Ctrl) FOS: 3.22
  log2 (TD/Ctrl) SMAD6: −1.023
Qvalue 1.54 × 10^−10
  log2 (TD/Ctrl) FADS2: −1.136
Qvalue 1.56 × 10^−4
  log2 (TD/Ctrl) DNAJB5: 1.316
